One data set deals with HCT-116. The data set is described as follows: NCI one-dose SRB anti-proliferative screen. The class given is cell-based, human. To be noted: Homo sapiens, read-out: Cell growth inhibition %. As for the experimental part:
(§1) The twenty-four synthesized compounds were submitted to the National Cancer Institute (NCI), USA. Eighteen hybrids 7a-h, 7k-r, 7u, and 7v were selected by NCI for one-dose assessment of their anti-proliferative activities at 10 µM dose by Sulforhodamine B colorimetric assay. The assessment was performed in 60 cell lines derived from nine tumor subpanels, comprising lung, leukemia, melanoma, colon, renal, CNS, prostate, breast, and ovarian cancer cell lines.
(§2) The methodology of the NCI anti-proliferative screening has been described in details elsewhere (http://www.dtp.nci.nih.gov).

Another data set has as its system K-562. Description: NCI one-dose SRB anti-proliferative screen. The class given is cell-based, human. The following applies: Homo sapiens, K562, read-out: Cell growth inhibition %. The protocol:
as §1, §2

For the next data set, the system named is MOLT-4. The data set is described as follows: NCI one-dose SRB anti-proliferative screen. The class given is cell-based, human. To be noted: Homo sapiens, read-out: Cell growth inhibition %. The protocol: as §1, §2
In another data set the test system is RXF 393. Description: NCI one-dose SRB anti-proliferative screen. The class given is cell-based, human. The following applies: Homo sapiens, read-out: Cell growth inhibition %. The protocol:
as §1, §2

For a further data set, the system named is T-47D. The data set is described as follows: NCI one-dose SRB anti-proliferative screen. The class given is cell-based, human. The following applies: for inhibition at 10 µM: Homo sapiens, T47D, read-out: Cell growth inhibition %. The protocol:
as §1, §2

Another data set concerns A-549. The data set is described as follows: Propidium iodide anti-proliferative assay. The class given is cell-based. To be noted: Homo sapiens, A549; 48 h incubation; read-out: IC50 ± SEM A-549. The protocol:
(§3) The propidium iodide (PI) tests^31, 32 were further used for assessment of the IC50 of all synthesized compounds and compared to Doxorubicin as a positive control against four cancer cell lines; pancreatic cancer cell line (Panc-1), epithelial line cancer cell (A-549), breast cancer cell line (MCF-7), and colon cancer cell line (HT-29).
(§4) Using the propidium iodide fluorescence assay with doxorubicin as the reference drug, IC50 of the 24 compounds 7a-x, was carried out according to a previously reported procedure^31, 32 against a panel of four human cancer cell lines; epithelial cancer cell line (A-549), breast cancer cell line (MCF-7), colon cancer cell line (HT-29) and pancreas cancer cell line (Panc-1). Compounds 7a-x were incubated with cancer cells for 2 days at different concentrations. See Appendix A.
(§5) To explore the antiproliferative potential of compounds propidium iodide fluorescence assay was performed using different cell lines (melanoma cancer cell line LOX-IMVI, pancreatic cancer cell line (Panc-1), epithelial line cancer cell (A-549), breast cancer cell line (MCF-7), and colon cancer cell line (HT-29). To calculate the total nuclear DNA, a fluorescent dye (propidium iodide, PI) is used which can attach to the DNA,^9,^10 thus offering a quick and precise technique. PI cannot pass through the cell membrane and its signal intensity can be considered as directly proportional to the quantity of cellular DNA. Cells whose cell membranes are damaged or have changed permeability are counted as dead ones. The assay was performed by seeding the cells of different cancer cell lines at a density of 3000-7500 cells/well (in 200µl medium) in culture plates followed by incubation for 24h at 37 °C in humidified 5% CO2/95% air atmospheric conditions. The medium was removed; the compounds were added to the plates at 10 µM concentrations (in 0.1% DMSO) in triplicates, followed by incubation for 48 h. DMSO (0.1%) was used as control. After incubation, medium was removed followed by the addition of PI (25 µl, 50µg/mL in water/medium) to each well of the plates. At -80 °C, the plates were allowed to freeze for 24 h, followed by thawing at 25 °C. A fluorometer (Polar-Star BMG Tech) was used to record the readings at excitation and emission wavelengths of 530 and 620 nm for each well. The percentage cytotoxicity of compounds was calculated using the following formula:
(§6) Where ATC= Absorbance of treated cells and AC= Absorbance of control. […]

The test system of the next data set is HT-29. Description: Propidium iodide anti-proliferative assay. The class given is cell-based. To be noted: Homo sapiens, 48 h incubation, read-out: IC50 ± SEM HT-29. As for the experimental part:
as §3, §4, §5, §6

The next data set deals with MCF-7. Description: Propidium iodide anti-proliferative assay. To be noted: Homo sapiens, MCF7; 48 h incubation; read-out: IC50 ± SEM MCF-7. The class given is cell-based. As for the experimental part:
as §3, §4, §5, §6

For another data set, the system named is Panc-1. Description: Propidium iodide anti-proliferative assay. The class given is cell-based. The following applies: Homo sapiens, 48 h incubation, read-out: IC50 ± SEM Panc-1. As for the experimental part:
as §3, §4, §5, §6

A short description of data set [1]: MTT cell viability assay in normal cells. The class given is cell-based. The following applies: human, MCF-10A normal mammary epithelial cells. The protocol:
To check the safety of prepared compounds and evaluate their selectivity towards tumor cells over normal ones, the toxicity of compounds 7a-x were evaluated by 3-(4,5-Dimethylthiazole-2-yl)-2,5-diphenyltetrazol (MTT) assay on the normal human mammary epithelial cell line (MCF-10 A). The human mammary epithelial cell lines were incubated for four days with a concentration of 50 µM of compounds 7a-x.
MTT assay was done to determine the effect of the synthesized compounds on the viability of mammary epithelial cells (MCF-10 A). Compounds 7a-x were incubated with MCF-10 A cells for 4 days at 50 µM concentration, and the viability of cells was determined. See Appendix A.
MTT assay was carried out to study the effect of compounds on mammary epithelial cells (MCF-10A).^7, ^8 The medium in which cells were propagated contained Dulbecco's modified Eagle's medium (DMEM)/ Ham's F-12 medium (1:1) supplemented with epidermal growth factor (20 ng/mL), hydrocortisone (500 ng/mL), insulin (10 μg/mL), 2 mM glutamine and 10% foetal calf serum. After every 2-3 days, the cells were passaged using trypsin ethylenediamine tetra acetic acid (EDTA). The cells were seeded at a density of 10^4 cells mL^-1 in flat-bottomed culture plates containing 96 wells each. After 24 h, medium was removed from the plates and the compounds in (in 0.1% DMSO) were added (in 200 μL medium to yield a final concentration of 0.1% v/v) to the wells of plates. A single compound was designated with four wells followed by incubation of plates for 96h at 37°C. After incubation, medium was removed completely from the plates followed by addition of MTT (0.4 mg/mL in medium) to each well and subsequent incubation of plates for 3h. MTT (along with the medium) was removed and DMSO (150μL) was added to each well of the culture plates, followed by vortexing and subsequent measurement of absorbance (at 540 nm) using microplate reader.

The target in a further data set is T1, EGFR (Homo sapiens, UniProt P00533).
T1 construct: EGFR cytoplasmic domain (EGFR-CD, amino acids 645–1186); His6 (N); made in house; host or cells: Sf-9 insect cells (baculovirus; pBlueBacHis2B / pFASTBacHTc)
The data set is described as follows: EGFR-TK inhibitory assay. The class given is biochemical. The following applies: read-out: EGFR Inhibition IC50 ± SEM.

The target in a further data set is BRAF^V600E. The data set is described as follows: biochemical.
[2] abbreviates: HCT-116 (Colon Cancer), NCI one dose 10 µM.
The mark [3] stands for this setting: K-562 (Leukemia), NCI one dose 10 µM.
Setting [4] is: MOLT-4 (Leukemia), NCI one dose 10 µM.
Setting [5] is: RXF 393 (Renal Cancer), NCI one dose 10 µM.
[6] abbreviates: T-47D (Breast Cancer), NCI one dose 10 µM.

Like-named read-outs stand apart in the source and are kept apart here.

T1 sequence (P00533 669-1210): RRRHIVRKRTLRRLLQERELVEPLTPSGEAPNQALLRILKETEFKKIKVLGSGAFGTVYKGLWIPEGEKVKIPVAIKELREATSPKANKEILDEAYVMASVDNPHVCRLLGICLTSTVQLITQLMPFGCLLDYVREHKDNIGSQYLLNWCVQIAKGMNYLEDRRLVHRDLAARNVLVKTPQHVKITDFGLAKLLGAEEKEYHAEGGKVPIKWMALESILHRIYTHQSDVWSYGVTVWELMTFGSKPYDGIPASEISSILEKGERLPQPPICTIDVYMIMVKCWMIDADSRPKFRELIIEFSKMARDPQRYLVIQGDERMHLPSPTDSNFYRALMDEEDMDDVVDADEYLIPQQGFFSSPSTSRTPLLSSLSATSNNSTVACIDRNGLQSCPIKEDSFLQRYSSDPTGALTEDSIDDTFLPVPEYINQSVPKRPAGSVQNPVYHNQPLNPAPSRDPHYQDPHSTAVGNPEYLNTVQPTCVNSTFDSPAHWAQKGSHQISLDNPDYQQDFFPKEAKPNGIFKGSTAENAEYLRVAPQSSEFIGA
BRAF^V600E, sequence (P28028 whole entry V585E): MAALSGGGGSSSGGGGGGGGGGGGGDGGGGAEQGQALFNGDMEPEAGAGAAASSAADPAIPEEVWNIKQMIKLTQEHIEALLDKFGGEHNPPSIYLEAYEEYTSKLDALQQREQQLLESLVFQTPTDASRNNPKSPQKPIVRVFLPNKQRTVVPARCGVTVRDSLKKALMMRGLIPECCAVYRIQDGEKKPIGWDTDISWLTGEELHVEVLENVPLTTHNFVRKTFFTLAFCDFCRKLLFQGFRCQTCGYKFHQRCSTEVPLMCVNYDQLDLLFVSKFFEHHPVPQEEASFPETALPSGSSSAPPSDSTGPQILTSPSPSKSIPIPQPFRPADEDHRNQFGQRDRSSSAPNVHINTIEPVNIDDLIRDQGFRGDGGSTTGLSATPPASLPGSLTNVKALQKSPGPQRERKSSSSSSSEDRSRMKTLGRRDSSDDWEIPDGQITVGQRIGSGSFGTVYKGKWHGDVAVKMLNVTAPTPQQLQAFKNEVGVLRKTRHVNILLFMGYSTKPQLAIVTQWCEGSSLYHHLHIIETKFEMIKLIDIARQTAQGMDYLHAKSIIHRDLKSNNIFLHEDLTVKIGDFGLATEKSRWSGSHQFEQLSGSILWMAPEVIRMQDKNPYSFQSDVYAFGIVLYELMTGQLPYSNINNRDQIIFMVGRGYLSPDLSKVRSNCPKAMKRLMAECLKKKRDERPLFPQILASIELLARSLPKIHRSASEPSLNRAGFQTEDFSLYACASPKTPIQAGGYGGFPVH
Method for BRAF^V600E: To further denature the protein, heat (70° C) was applied for 5 min. […] 10 µL of each reaction was loaded into the precast plates and electrophoresis was allowed to proceed. After completion of electrophoresis, the front part of the precast gel plate (holding hot ATP) was cut and afterwards cast-off. The dried gel was developed using a phosphor screen.

Take `COc1cc(-c2nc3cc(-c4nnc(SCC(=O)Nc5ccc(C(=O)/C=C/c6ccc(Cl)cc6)cc5)o4)ccc3[nH]2)cc(OC)c1OC` [Compound 7v, 2-{5-[2-(3,4,5-Trimethoxyphenyl)-1 H-benzo[d]imidazol-5-yl]-1,3,4-oxadiazol-2-ylthio}-N-{4-[(E)-3-(4-chlorophenyl)acryloyl]phenyl}acetamide]: the inhibition at 10 µM with HCT-116 (setting [2]) was 18.5%; in the data set with K-562 (setting [3]), 16.2%; in the data set with MOLT-4 (setting [4]) it was 20.6%; in the data set with RXF 393 (setting [5]), 0%; in the data set with T-47D (setting [6]), 19.6%. Besides, the IC50 in the data set on A-549 was determined as 2.45 ± 0.5 µM; with HT-29, 2.9 ± 0.5 µM; in the data set with MCF-7, 2.2 ± 0.08 µM; in the data set on Panc-1, 2.6 ± 0.2 µM; on EGFR, 2.8 ± 0.3 µM; against BRAF^V600E it was 3.1 ± 0.2 µM. The same molecule yielded a viability at 96 h, 50 µM in data set [1] of 87%.
In the case of `COc1ccc(-c2nc3cc(-c4nnc(SCC(=O)Nc5ccc(C(=O)/C=C/c6ccccc6)cc5)o4)ccc3[nH]2)cc1OC` [Compound 7p, 2-{5-[2-(3,4-Dimethoxyphenyl)-1 H-benzo[d]imidazol-5-yl]-1,3,4-oxadiazol-2-ylthio}-N-{4-[(E)-3-phenylacryloyl]phenyl}acetamide], the inhibition at 10 µM was 10.3% in the data set on HCT-116 (setting [2]); 8.36% in the data set on K-562 (setting [3]); 19.5% in the data set with MOLT-4 (setting [4]); 0% with RXF 393 (setting [5]); 13.1% in the data set with T-47D (setting [6]). Moreover, the IC50 came out at 2.5 ± 0.5 µM in the data set with A-549; 3.3 ± 0.4 µM in the data set on HT-29; 2.1 ± 0.2 µM in the data set with MCF-7; 3.1 ± 0.4 µM in the data set on Panc-1; 3.5 ± 0.3 µM on EGFR; 4.2 ± 0.3 µM on BRAF^V600E. In data set [1], this molecule returned a viability at 96 h, 50 µM of 87%.
For the molecule `COc1ccc(/C=C/C(=O)c2ccc(NC(=O)CSc3nnc(-c4ccc5[nH]c(-c6ccc(Cl)cc6)nc5c4)o3)cc2)cc1` [Compound 7h, 2-{5-[2-(4-Chlorophenyl)-1 H-benzo[d]imidazol-5-yl]-1,3,4-oxadiazol-2-ylthio}-N-{4-[(E)-3-(4-methoxyphenyl)acryloyl]phenyl}acetamide], the inhibition at 10 µM was found to be 6.56% with HCT-116 (setting [2]); 12.7% in the data set on K-562 (setting [3]); 35.4% in the data set on MOLT-4 (setting [4]); 0% with RXF 393 (setting [5]); 22% in the data set on T-47D (setting [6]). For the same molecule, the 50% inhibitory concentration (IC50) with A-549 is 1.95 ± 0.6 µM; with HT-29, 2.25 ± 0.6 µM; with MCF-7, 1.75 ± 0.4 µM; in the data set on Panc-1 it was 2.05 ± 0.5 µM; on EGFR it was 2.3 ± 0.2 µM; against BRAF^V600E it was 2.7 ± 0.3 µM. This molecule also yielded a viability at 96 h, 50 µM in [1] of 87%.
Turning to `COc1ccc(/C=C/C(=O)c2ccc(NC(=O)CSc3nnc(-c4ccc5[nH]c(-c6ccccc6)nc5c4)o3)cc2)cc1` [Compound 7c, 2-{5-[2-Phenyl-1 H-benzo[d]imidazol-5-yl]-1,3,4-oxadiazol-2-ylthio}-N-{4-[(E)-3-(4-methoxyphenyl)acryloyl]phenyl}acetamide], the inhibition at 10 µM with HCT-116 (HCT-116, Colon cancer, NCI one dose) came to 15.1%; in the data set with K-562 (K-562, Leukemia, NCI one dose), 3.83%; with MOLT-4 (MOLT-4, Leukemia, NCI one dose), 23.9%; in the data set with RXF 393 (RXF 393, Renal cancer, NCI one dose), 8.38%; with T-47D (T-47D, Breast cancer, NCI one dose), 47.6%. For the same molecule, in the data set on T-47D (T-47D (Breast Cancer), 10 µM one dose), the “Growth Percent” value worked out at 52.35%. Further, the IC50 with A-549 was 4.7 ± 0.5 µM; in the data set on HT-29 it was 5.5 ± 0.5 µM; in the data set with MCF-7, 4.15 ± 0.5 µM; with Panc-1, 5.2 ± 0.4 µM. The molecule further showed a viability at 96 h, 50 µM in data set [1] of 87%.

The inhibition is the relative decrease from the control value, in per cent. Usually IC50 stands for the concentration at which inhibition is half-maximal. Usually viability stands for the share of living cells, or the viability signal relative to a control. A high value points to better survival.
